Results: ChEMBL document CHEMBL1201862, “PubChem BioAssay data set” (2004)
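Five concentrations, 48 hours, 96-well plates. Abbreviation: GI50, concentration required for 50% inhibition of growth.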 The source made the active and inactive calls. Cut-off read from the data, not from the text of the source: active = GI50 up to about 1.1 µM and inactive = higher. Non-standard residues stand in square brackets, D forms with d. Residues, ends and D or L forms follow the SMILES beside them. ξ: configuration not given here. *: point of attachment. ξF = NC(Cc1ccccc1)C(=O)O; Cbz = O=C(OCc1ccccc1)*

Tests used:
Test in all cases: NCI-60 cell line screen, 48 h
[1] = tested on: ACHN
[2] = tested on: CAKI-1
[3] = tested on: CCRF-CEM
[4] = tested on: HOP-62
[5] = tested on: HOP-92
[6] = tested on: HT-29
[7] = tested on: Hs-578T
[8] = tested on: KM12
[9] = tested on: LOX IMVI
[10] = tested on: MOLT-4
[11] = tested on: NCI-H23
[12] = tested on: OVCAR-4
[13] = tested on: PC-3
[14] = tested on: RXF 393
[15] = tested on: SF-268
[16] = tested on: TK-10
[17] = tested on: UACC-62
[18] = tested on: UO-31
[19] = tested on: NCI-H460
[20] = tested on: SR

Measured: GI50

CN1C(=O)N/C(=C\c2ccc(S(=O)(=O)NN)cc2)C1=O
inactive: [1] > 100 µM | [2] > 100 µM | [3] > 100 µM | [4] > 100 µM | [5] > 100 µM | [6] > 100 µM | [7] > 100 µM | [8] > 100 µM | [9] > 100 µM | [10] > 100 µM | [11] > 100 µM | [12] > 100 µM | [13] > 100 µM | [14] > 100 µM | [15] > 100 µM | [16] > 100 µM | [17] > 100 µM | [18] > 100 µM

CC(=O)O[C@H]1CCC2[C@@H]3CCC4Nc5oncc5C[C@]4(C)C3CC[C@@]21C (stereo not given in full)
inactive: [1] > 10 µM | [2] > 10 µM | [3] 3.67 µM | [4] > 10 µM | [5] > 10 µM | [6] > 10 µM | [8] > 10 µM | [9] > 10 µM | [10] 3.92 µM | [11] > 10 µM | [19] > 10 µM | [12] > 10 µM | [13] > 10 µM | [14] > 10 µM | [15] > 10 µM | [20] > 10 µM | [16] > 10 µM | [18] > 10 µM

Cc1c(NC(=O)CCl)c(=O)oc2c(C)c3occc(=O)c3cc12
inactive: [1] 16.6 µM | [2] 12.3 µM | [3] 3.48 µM | [4] 13.8 µM | [5] 14.2 µM | [6] 14.9 µM | [7] 15.5 µM | [8] 11.7 µM | [10] 1.37 µM | [19] 10.7 µM | [12] 11.5 µM | [15] 6.95 µM | [20] 6.49 µM | [16] 14.5 µM | [18] 10.5 µM

CCOC(=O)CNC(=O)C(Cc1ccccc1)NC(=O)OCc1ccccc1 (stereo not given) (Cbz-[ξF]-Gly-OEt)
inactive: [1] > 100 µM | [3] > 100 µM | [4] > 100 µM | [5] > 100 µM | [6] > 100 µM | [7] 70.8 µM | [8] > 100 µM | [9] > 100 µM | [10] > 100 µM | [11] > 100 µM | [19] > 100 µM | [13] > 100 µM | [15] > 100 µM | [20] > 100 µM | [18] > 100 µM

CC1CCC(C(=O)O)(C(Br)C(=O)O)CC1 (stereo not given)
inactive: [1] > 100 µM | [2] > 100 µM | [3] > 100 µM | [4] > 100 µM | [5] > 100 µM | [6] > 100 µM | [8] > 100 µM | [9] > 100 µM | [10] > 100 µM | [11] > 100 µM | [19] > 100 µM | [12] > 100 µM | [13] > 100 µM | [14] > 100 µM | [20] > 100 µM | [16] > 100 µM | [17] > 100 µM | [18] > 100 µM

O=C(CSCC(=O)N/N=C\c1ccc(O)c(O)c1O)N/N=C\c1ccc(O)c(O)c1O
inactive: [1] 5.87 µM | [2] 16.7 µM | [3] 1.73 µM | [5] 31 µM | [6] 11.6 µM | [7] 30.8 µM | [8] 18.3 µM | [9] 2.18 µM | [10] 3.15 µM | [11] 1.69 µM | [19] 23.3 µM | [12] 2.48 µM | [14] 34.9 µM | [15] 29.5 µM | [20] 2.33 µM | [16] 24 µM | [17] 15.6 µM | [18] 13.7 µM

O=C(C=P(c1ccccc1)(c1ccccc1)c1ccccc1)C12CC3CC(CC(C3)C1)C2
inactive: [1] 16.2 µM | [2] 16.1 µM | [3] 14.4 µM | [4] 17.2 µM | [5] 20.5 µM | [6] 11.2 µM | [7] 16.5 µM | [8] 15 µM | [9] 16.4 µM | [11] 16.7 µM | [19] 16.4 µM | [12] 18.7 µM | [13] 11.7 µM | [15] 20.8 µM | [20] 55 µM | [16] 11.8 µM | [17] 14.7 µM | [18] 14.6 µM
